Laboratory results as given in patent publication US20070117743A1, “New antitumoral compounds” (priority 2003, published 2007).
Where a SMILES comes first, the peptide text is derived from it. Bridges are numbered along the chain shown (N, C = ends). [ ]: non-standard residue; d: D form. The star is where a group is joined. d(aIle) = CC[C@H](C)[C@@H](N)C(=O)O; d(aThr) = C[C@@H](O)[C@@H](N)C(=O)O; Hexanoyl(5-Me) = CC(C)CCCC(=O)*; Dhb = C/C=C(\N)C(=O)O

Assays:
Assay type in all cases: cell-based, human
PANC-1 = test: SRB colorimetric assay of cell growth and viability, PANC-1; conditions: 48 hours exposure; for CC50: read-out: LC50 PANC-1
HT-29 = test: SRB colorimetric assay of cell growth and viability, HT-29; conditions: 48 hours exposure; for GI50: read-out: GI50 HT-29; for CC50: read-out: LC50 HT-29
IGROV-1 = test: SRB colorimetric assay of cell growth and viability, IGROV-1; conditions: 48 hours exposure
SK-MEL-28 = test: SRB colorimetric assay of cell growth and viability, SK-MEL-28; conditions: 48 hours exposure; for CC50: read-out: LC50 MEL-28
LoVo = test: SRB colorimetric assay of cell growth and viability, LoVo; conditions: 48 hours exposure; for CC50: read-out: LC50 LOVO
SK-OV-3 = test: SRB colorimetric assay of cell growth and viability, SK-OV-3; conditions: 48 hours exposure; for GI50: read-out: GI50 SKOV-3; for CC50: read-out: LC50 SKOV-3
From the text: The finality of this assay is to interrupt the growth of a “in vitro” tumor cell culture by means a continued exhibition of the cells to the sample to be testing.
A colorimetric type of assay, using sulforhodamine B (SRB) reaction has been adapted for a quantitative measurement of cell growth and viability [following the technique described by Philip Skehan, et al. (1990), New colorimetric cytotoxicity assay for anticancer drug screening, J. Natl. Cancer Inst., 82:1107-1112].
This form of the assay employs 96 well cell culture microplates of 9 mm diameter (Faircloth, 1988; Mosmann, 1983). Most of the cell lines are obtained from American Type Culture Collection (ATCC) derived from different human cancer types.
Cells are maintained in RPMI 1640 10% FBS, supplemented with 0.1 g/l penicillin and 0.1 g/l streptomycin sulfate and then incubated at 37° C., 5% CO2 and 98% humidity. For the experiments, cells were harvested from subconfluent cultures using trypsin and resuspended in fresh medium before plating.
Cells are seeded in 96 well microtiter plates, at 5×10^3 cells per well in aliquots of 195 μL medium, and they are allowed to attach to the plate surface by growing in drug free medium for 18 hours. Afterward, samples are added in aliquots of 5 μL in a ranging from 10 to 10^−8 μg/mL, dissolved in DMSO:EtOH:PBS (0.5:0.5:99). After 48 hours exposure, the antitumor effect are measured by the SRB methodology: cells are fixed by adding 50 μL of cold 50% (wt/vol) trichloroacetic acid (TCA) and incubating for 60 minutes at 4° C. Plates are washed with deionized water and dried. One hundred μL of SRB solution (0.4% wt/vol in 1% acetic acid) is added to each microtiter well and incubated for 10 minutes at room temperature. Unbound SRB is removed by washing with 1% acetic acid. Plates are air dried and bound stain is solubilized with Tris buffer. Optical densities are read on a automated spectrophotometric plate reader at a single wavelength of 490 nm.
The values for mean+/− SD of data from triplicate wells are calculated. Some parameters for cellular responses can be calculated: GI=growth inhibition, TGI=total growth inhibition (cytostatic effect) and LC=cell killing (cytotoxic effect).

LNCaP = test: SRB colorimetric assay of cell growth and viability, LNCaP; conditions: 48 hours exposure; for GI50: read-out: GI50 LN-caP; for CC50: read-out: LC50 LN-caP
IGROV-ET = test: SRB colorimetric assay of cell growth and viability, IGROV-ET; conditions: 48 hours exposure; for CC50: read-out: LC50 IGROV-ET
A-549 = test: SRB colorimetric assay of cell growth and viability, A-549; conditions: 48 hours exposure; for GI50: read-out: GI50 A-549; for CC50: read-out: LC50 A-549
LoVo-Dox = test: SRB colorimetric assay of cell growth and viability, LoVo-Dox; conditions: 48 hours exposure; for CC50: read-out: LC50 LOVO-DOX
Procedure, shortened: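 Continuous 48-hour exposure of cells plated at 5×10^3 per well, with compounds diluted in DMSO:EtOH:PBS (0.5:0.5:99) over 10 to 10^−8 μg/mL. Staining with SRB and reading at 490 nm give GI, TGI and LC.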

DU-145 = test: SRB colorimetric assay of cell growth and viability, DU-145; conditions: 48 hours exposure
K-562 = test: SRB colorimetric assay of cell growth and viability, K-562; conditions: 48 hours exposure; for CC50: read-out: LC50 K-562

Structure (SMILES)	GI50 (PANC-1) [nM]	TGI PANC-1 (PANC-1) [Molar]	CC50 (PANC-1) [nM]	TGI HT-29 (HT-29) [Molar]	GI50 (HT-29) [nM]	CC50 (HT-29) [nM]	GI50 (IGROV-1) [nM]	LC50 (concentration causing 50% net cell killing) (IGROV-1) [nM]	TGI IGROV (IGROV-1) [Molar]	GI50 (SK-MEL-28) [nM]	TGI MEL-28 (SK-MEL-28) [Molar]	CC50 (SK-MEL-28) [nM]	GI50 (LoVo) [nM]	TGI LOVO (LoVo) [Molar]	CC50 (LoVo) [nM]	TGI SKOV-3 (SK-OV-3) [Molar]	GI50 (SK-OV-3) [nM]	CC50 (SK-OV-3) [nM]	TGI LN-caP (LNCaP) [Molar]	GI50 (LNCaP) [nM]	also measured
C/C=C1\NC(=O)[C@H](Cc2ccccc2)NC(=O)[C@@H](C(C)C)NC(=O)[C@@H]([C@@H](C)CC)NC(=O)[C@H](NC(=O)[C@H](NC(=O)[C@H](CCC(=O)O)NC(=O)[C@H]2CCCN2C(=O)[C@H](NC(=O)[C@@H](NC(=O)[C@@H](NC(=O)[C@H](NC(=O)CCCC(C)C)C(C)C)[C@@H](C)O)C(C)C)C(C)C)[C@@H](C)CC)[C@@H](C)OC(=O)[C@H](C(C)C)NC1=O [Compound 4, [Glu^8]-KF] ({Hexanoyl(5-Me)}-[dV]TV[dV][dP]E[d(aIle)][d(aThr)][d(aIle)][dV]F[Dhb]V; ester 8-C)	1820	3.46E−06	6600	2.00E−06	884	4550	490	3310	1.29E−06	2950	6.70E−06	6700	348	6.45E−07	2650	5.85E−07	195	2260	1.19E−06	371	CC50 (LNCaP): 3620 nM; GI50 (IGROV-ET): 817 nM; TGI IGROV-ET (IGROV-ET): 1.69E−06 Molar; CC50 (IGROV-ET): 3520 nM; TGI A-549 (A-549): 4.02E−06 Molar; GI50 (A-549): 1770 nM; CC50 (A-549): 6700 nM; GI50 (LoVo-Dox): 757 nM; TGI LOVO-DOX (LoVo-Dox): 1.77E−06 Molar; CC50 (LoVo-Dox): 4150 nM; GI50 (DU-145): 1030 nM; LC50 (concentration causing 50% net cell kill) (DU-145): 3880 nM; TGI DU-145 (DU-145): 2.00E−06 Molar; GI50 (K-562): 2110 nM; TGI K-562 (K-562): 5.10E−06 Molar; CC50 (K-562): 6700 nM
C/C=C1\NC(=O)[C@H](Cc2ccccc2)NC(=O)[C@@H](C(C)C)NC(=O)[C@@H]([C@@H](C)CC)NC(=O)[C@H](NC(=O)[C@H](NC(=O)[C@H](CCCN)NC(=O)[C@H]2CCCN2C(=O)[C@H](NC(=O)[C@@H](NC(=O)[C@@H](NC(=O)[C@H](NC(=O)Cc2ccc(C(F)(F)F)cc2)C(C)C)[C@@H](C)O)C(C)C)C(C)C)[C@@H](C)CC)[C@@H](C)OC(=O)[C@H](C(C)C)NC1=O [Compound 25, [p-CF3PhAc^14]-KF]	1580	3.07E−06	5960	1.41E−06	555	3320	252	1960	4.54E−07	1400	2.14E−05	4060	203	4.59E−07	1610	3.29E−07	126	1130	1.19E−06	320	CC50 (LNCaP): 3660 nM; GI50 (IGROV-ET): 200 nM; TGI IGROV-ET (IGROV-ET): 3.23E−07 Molar; CC50 (IGROV-ET): 521 nM; TGI A-549 (A-549): 9.67E−07 Molar; GI50 (A-549): 297 nM; CC50 (A-549): 3240 nM; GI50 (LoVo-Dox): 176 nM; TGI LOVO-DOX (LoVo-Dox): 3.92E−07 Molar; CC50 (LoVo-Dox): 1430 nM; GI50 (DU-145): 251 nM; LC50 (concentration causing 50% net cell kill) (DU-145): 2380 nM; TGI DU-145 (DU-145): 7.86E−07 Molar; GI50 (K-562): 1420 nM; TGI K-562 (K-562): 3.06E−06 Molar; CC50 (K-562): 6440 nM
C/C=C1\NC(=O)[C@H](Cc2ccccc2)NC(=O)[C@@H](C(C)C)NC(=O)[C@@H]([C@@H](C)CC)NC(=O)[C@H](NC(=O)[C@H](NC(=O)[C@H](CCCN)NC(=O)[C@H]2CCCN2C(=O)[C@H](NC(=O)[C@@H](NC(=O)[C@@H](NC(=O)[C@H](NC(=O)CCCCC(C)(F)F)C(C)C)[C@@H](C)O)C(C)C)C(C)C)[C@@H](C)CC)[C@@H](C)OC(=O)[C@H](C(C)C)NC1=O [Compound 28, [6,6-dFHep^14]-KF]	1480	2.52E−06	4300	1.54E−06	649	3630	334	2550	7.86E−07	1470	2.55E−06	4410	196	3.70E−07	872	3.36E−07	145	1010	1.09E−06	363	CC50 (LNCaP): 3100 nM; GI50 (IGROV-ET): 228 nM; TGI IGROV-ET (IGROV-ET): 3.59E−07 Molar; CC50 (IGROV-ET): 568 nM; TGI A-549 (A-549): 1.04E−06 Molar; GI50 (A-549): 328 nM; CC50 (A-549): 4250 nM; GI50 (LoVo-Dox): 172 nM; TGI LOVO-DOX (LoVo-Dox): 3.18E−07 Molar; GI50 (DU-145): 215 nM; LC50 (concentration causing 50% net cell kill) (DU-145): 2090 nM; TGI DU-145 (DU-145): 5.59E−07 Molar; GI50 (K-562): 1880 nM; TGI K-562 (K-562): 2.99E−04 Molar; CC50 (K-562): 4750 nM
